Test results reported in US5679638A, “Method for treating a tumor with a chemotherapeutic agent” (Biopure Corporation, priority 1993, dated 1997).
Values joined by “and” are separate entries in the source; they are usually repeats but may differ in a detail not shown here. Equal entries are not always repeated.

Assays:
[1] = test system: FSaIIC fibrosarcoma; assay: FSaIIC fibrosarcoma tumor growth delay; assay type: in vivo, mouse (male C3H/FeJ mice); settings: for Tumor growth delay, UPHS/Air: UPHS 0.3 ml (12 ml/kg) i.v. immediately before drug; for Tumor growth delay, UPHS/Air / Tumor growth delay, alkylating agent (alone): air breathing; for Increase in tumor growth delay by addition of UPHS: UPHS + drug (air) vs drug alone; for Effect of carbogen breathing on tumor growth delay produced by drug / Tumor growth delay, Carbogen: no UPHS; for Effect of carbogen breathing on tumor growth delay produced by drug: vs drug with air; for Tumor growth delay, Carbogen: drug + carbogen breathing 6 hours; for Tumor growth delay, alkylating agent (alone): drug alone i.p.
Procedure: The FsaII fibrosarcoma (FSaIIC), adapted for growth in culture, was employed. See Rice, L. et al., "The Radiosensitivity of a Murine Fibrosarcoma as Measured by Three Cell Survival Assays", Br. J. Cancer 41:240-245 (1980). 2×10^6 FSaIIC cells, prepared from a brei of several stock tumors, were implanted intramuscularly into the legs of 8- to 10-week old male C3H/FeJ mice (The Jackson Laboratory, Bar Harbor, Me.). When the tumors were approximately 100 mm^3 in volume, 0.3 ml (12 ml/kg; 1.32 gm protein/kg) of UPHS was injected via the tail vein. The UPHS solution was obtained from Biopure Corporation, Boston, Mass. and was a polymerized form of a highly purified bovine hemoglobin solution. It contained 11±2 gm/deciliter of bovine hemoglobin. […] It contained sodium (145 mM/L), chloride (140 mM/L) and potassium (4.0 mM/L) in a buffer solution (pH 7.8±0.4). […] DeVenuto, F., "Evaluation of Human and Bovine Modified-Hemoglobin Solution as Oxygen-Carrying Fluid for Blood Volume Replacement", Biomat. Art. Cells, Art. Org. 16:77-82 (1988); and Winslow, R. M., "Optimal Hematologic Variables for Oxygen Transport Including p50, Hemoglobin Cooperativity, Hematocrit, Acid-Base Atatus, and Cardiac Function", Biomat., Art. Cells and Art. Organs 16:149-172 (1988).
CTX and PAM were purchased as pure powders from Sigma Chemical Company, St. Louis, Miss. […] BCNU (Carmustine) was purchased from the Dana-Farber Cancer Institute Pharmacy.
The mice were allowed to breathe air or were placed in a circulating atmosphere of 95% O2 /5% CO2 (carbogen) for six hours and then removed to air. The progress of each tumor was measured three times weekly until it reached a volume of 500 mm^3. Tumor growth delay was calculated as the days taken by each individual tumor to reach 500 mm^3 compared to the untreated controls. […] Days of tumor growth Relay are the mean ±SE for the treatment group compared to the control.
Statistical comparisons were made with Dunn Multiple Comparisons Test.
The procedures and materials of Example I were employed except that Fluosol-DA was substituted for UPHS. Fluosol-DA was obtained from Alpha Therapeutics Corporation and is an emulsion consisting of […] (w/v) of the following perfluorocarbons: 7 parts perfluorodecalin, 3 parts per perfluorotripropyliamine; Pluronic F-68 (2.7%, w/v); yolk phospholipids (0.4% w/v) as emulsifiers; and glycerol (0.8%, w/v) as a cryoprotective agent. The annex solution (electrolyte/bicarbonate solution) furnished the preparation with physiological osmolarity.
The specific procedures employing Fluosol-DA have been described previously. See Teicher, B. A. et al., "Approaches to Defining the Mechanism of Fluosol-DA 20%/Carbogen Enhancement of Melphalan Antitumor Activity", Cancer Res. 47:513-518 (1987); Teicher, B. A. et al., "Differential Enhancement of Melphalan Cytotoxicity in Tumor and Normal t+Tissue by Fluosol-DA and Oxygen Breathing", Int. J. Cancer 36:585-589 (1985); and Teicher, B. A. et al., "Effects of Various Oxygenation Conditions on the Enhancement by Fluosol-DA of Melphalan Antitumor Activity", Cancer Res. 47:5036-5041 (1987).

[2] = test system: subcutaneous 9L gliosarcoma; assay: Subcutaneous 9L gliosarcoma tumor growth delay; assay type: in vivo, rat (male Fischer 344); settings: for Subcutaneous 9L Tumor Growth Delay, Mean Days: Table III, days to 500 mm^3 vs control (19.5 ± 0.5 days), CDDP 8 mg/kg day 7, BCNU 3 x 15, CTX or IFOS 3 x 100 mg/kg, UPHS 8 ml/kg; for Increase in tumor growth delay by prior administration of UPHS: UPHS + drug vs drug alone; for Effectiveness against subcutaneous 9L tumors: relative statement among BCNU, CTX, CDDP, IFOS
Procedure: The 9L gliosarcoma (9L) cells were obtained as a gift of 9L/SF gliosarcoma cells from Dr. Dennis Dean, University of California, San Francisco. These cells were maintained in culture in .varies.-MEM (Grand Island Biological Co., Grand Island, N.Y.) and supplemented with 10% fetal bovine serum (Sterile Systems, Inc., Logan, Utah) and with antibiotics. The 9L cells (4×10^4) in 10 μL of media without serum were implanted intracranially in male Fischer 344 rats (Taconic Farms, Germantown, N.Y.) weighing 200-250 gm on day 0. Each rat was anesthetized with sodium pentobarbital. A midline scalp incision was made and a hole was bored through the skull with 23 gauge needle at a point 2 mm lateral to the midline. The cell suspension was injected into the right frontal lobe at a depth of 3 mm from the dural surface. The needle was removed and the hole filled with dental cement. The scalp was sealed with a surgical clip. Two days later 9L cells (2×10^6) were implanted subcutaneously into the flank of each animal. When the tumors were approximately 100 mm^3 in volume, 7 days after tumor cell implantation, 8 ml/kg of UPHS was injected via the tail vein. After injecting the UPHS, administration of chemotherapeutic agents was initiated. […] BCNU therapy consisted of three 15 mg/kg BCNU doses administered by intraperitoneal injection days 7, 9 and 11. CTX and ifosfamide (IFOS) therapy consisted of three 100 mg/kg CTX or IFOS doses administered by intraperitoneal injection on days 7, 9 and 11. For the BCNU, CTX and IFOS therapies, UPHS was intravenously administered prior to each chemotherapeutic agent injection on days 7, 9 and 11. The IFOS was purchased from the Dana-Farber Cancer Institute. Survival of animals was monitored daily. Animals that were moribund or unable to reach food or water were killed by CO2 inhalation.
The progress of each subcutaneous tumor was measured 3 times/week until it reached a volume of 500 mm^3. Tumor growth delay was calculated as the number of days for each individual tumor to reach 500 mm^3 compared with untreated controls. Each treatment group had 4 animals and the experiment was repeated twice. Days of tumor growth delay are the mean ±SE for the treatment group compared with the control.

[3] = PAM 10, CTX 150, CDDP 10, BCNU 15 mg/kg
[4] = UPHS + carbogen 6 h + drug vs drug alone

Row | Structure (SMILES) | Tumor growth delay, UPHS/Air [1, 3] | Increase in tumor growth delay by addition of UPHS [1] | Effect of carbogen breathing on tumor growth delay produced by drug ([1]; carbogen 6 hours) | Tumor growth delay, Carbogen [1, 3] | Tumor growth delay, alkylating agent (alone) [1, 3] | Increase in tumor growth delay by combination of UPHS and carbogen ([1]; mouse, in vivo) | Subcutaneous 9L Tumor Growth Delay, Mean Days [2] | Increase in tumor growth delay by prior administration of UPHS [2] | Effectiveness against subcutaneous 9L tumors [2] | Tumor growth delay, UPHS/Carbogen ([1]; UPHS 12 ml/kg i.v. + drug + carbogen breathing 6 hours, PAM 10, CTX 150, CDDP 10, BCNU 15 mg/kg) | Increase in tumor growth delay by combination of UPHS and carbogen [1, 4] | Effect of UPHS on tumor growth delay produced by drug ([2]; UPHS prior to single dose of CDDP) | Tumor growth delay, with Fluosol-DA and carbogen ([1]; CTX 150 mg/kg + Fluosol-DA, carbogen 6 hours) | Tumor growth delay, with Fluosol-DA and air breathing ([1]; PAM 10 mg/kg + Fluosol-DA, air)
1 | O=NN(CCCl)C(=O)NCCCl [BCNU, N,N-bis(2-chloroethyl)-N-nitrosourea] | 3.8 ± 0.5 days | 1.5 fold | increased the tumor growth delay produced by BCNU to a small degree | 3.3 ± 0.3 days | 2.5 ± 0.3 days and 2.5 days | 2.3 fold | 5.8 ± 0.5 days | 1.3 fold | least effective against subcutaneously growing 9L tumors |  |  |  |  | 
2 | N.N.[Cl][Pt][Cl] [CDDP, cis-diaminodichloroplatinum(II)] | 9.6 ± 1.1 days | 1.3 fold | no significant effect on the tumor growth delay | 7.6 ± 0.3 days | 7.4 ± 0.8 days and 7.4 days |  | 9.4 ± 0.8 days |  | very effective against both subcutaneous and intracranial 9L tumors | 14.1 ± 1.6 days and 14.1 days | 1.9 fold | no substantial effect on the tumor growth delay |  | 
3 | O=P1(N(CCCl)CCCl)NCCCO1 (stereo not drawn) [CTX, Cyclophosphamide] | 7.4 days and 7.4 ± 0.7 days | 2.1 fold | small increase in the tumor growth delay | 5.0 ± 0.5 days |  |  | 9.1 ± 0.7 days | 1.5 fold | very effective treatments for subcutaneously growing 9L tumors |  | 4.6 fold |  | about 12 days | 
4 | N[C@@H](Cc1ccc(N(CCCl)CCCl)cc1)C(=O)O [PAM, Melphalan] |  | 2.2 fold | small increase in tumor growth delay | 4.0 ± 0.6 days |  |  |  |  |  |  | 3.6 fold |  |  | about 6.5 days
